Molecular target: T1, crosslinked smooth muscle actomyosin (chicken gizzard smooth muscle myosin subfragment-1 crosslinked to cardiac or skeletal actin) (Gallus gallus, UniProt P10587)
T1 construct: chicken gizzard smooth muscle myosin subfragment-1; from tissue; host or cells: chicken gizzard
Assay: Lead optimization pyruvate kinase/horseradish peroxidase/pyruvate oxidase-coupled ATPase assay (compound dose response)
Type: biochemical
Conditions: read-out: IC50 Arithmetic Mean
How it was run: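 The ATPase used chicken gizzard smooth muscle myosin S1 chemically crosslinked to cardiac or skeletal actin, titrated to a set hydrolysis rate. It was coupled via pyruvate kinase/pyruvate oxidase/HRP in 12 mM K-PIPES pH 7.00 (22 °C) with 0.15 mM ATP, 2 mM MgCl2, 100 mM KCl and 0.1 mM Amplex Red. Fluorescence was read at ex 480/em 615 nm, and IC50 came from a 4-parameter fit.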

IC50 [nM]	Compound
11200	CCc1ccc(NC(=O)OCC(C)(NC(=O)[C@@H](N)CO)C(=O)NCc2ccccc2Cl)cc1 (stereo partly drawn) [2-((2S)-2-amino-3-hydroxypropanoylamino)-N-[(2-chlorophenyl)methyl]-3-[N-(4-ethylphenyl)carbamoyloxy]-2-methylpropanamide]
474	CCc1ccc(NC(=O)OCC2(C(=O)NCc3ccccc3Cl)CCCN(C(=O)OC)C2)cc1 (stereo not shown) [methyl 3-{N-[(2-chlorophenyl)methyl]carbamoyl}-3-{[N-(4-ethylphenyl)carbamoyloxy]methyl}piperidinecarboxylate]
2160	CCc1ccc(NC(=O)OCC2(C(=O)NCc3ccccc3OC)CCN(C(=O)CN)CC2)cc1 [(1-(2-aminoacetyl)-4-{[N-(4-ethylphenyl)carbamoyloxy]methyl}(4-piperidyl))-N-[(2-methoxyphenyl)methyl]carboxamide]
159	CCc1ccc(NC(=O)OCC2(C(=O)NCc3ccccc3Cl)CCN(C(=O)NCCN)CC2)cc1 [N-(2-aminoethyl)(4-{N-[(2-chlorophenyl)methyl]carbamoyl}-4-{[N-(4-ethylphenyl)carbamoyloxy]methyl}piperidyl)carboxamide]
412	Cc1c(F)cccc1CNC(=O)C1(COC(=O)Nc2ccc(C(F)(F)F)cc2)CCN(C(=O)CN)CC1 [[(1-(2-aminoacetyl)-4-{N-[(3-fluoro-2-methylphenyl)methyl]carbamoyl}(4-piperidyl))methoxy]-N-[4-(trifluoromethyl)phenyl]carboxamide]
2980	CCc1ccc(NC(=O)OCC2(C(=O)NCc3ncccc3C)CCN(C(=O)CN)CC2)cc1 [[(1-(2-aminoacetyl)-4-{N-[(3-methyl(2-pyridyl))methyl]carbamoyl}(4-piperidyl))methoxy]-N-(4-ethylphenyl)carboxamide]
88	CCc1ccc(NC(=O)OCC2(C(=O)NCc3cccc(Cl)c3Cl)CCN(C(=O)CN)CC2)cc1 [[(1-(2-aminoacetyl)-4-{N-[(2,3-dichlorophenyl)methyl]carbamoyl}(4-piperidyl))methoxy]-N-(4-ethylphenyl)carboxamide]
213	CCc1ccc(NC(=O)OCC2(C(=O)NCc3ccccc3Cl)CCN(C(=O)CNC)CC2)cc1 [N-[(2-chlorophenyl)methyl](4-{[N-(4-ethylphenyl)carbamoyloxy]methyl}-1-[2-(methylamino)acetyl](4-piperidyl))carboxamide]
1360	CCc1ccc(NC(=O)OCC2(C(=O)NCc3ccccc3Cl)CC=CC2)cc1 [N-[(2-chlorophenyl)methyl](1-{[N-(4-ethylphenyl)carbamoyloxy]methyl}cyclopent-3-enyl)carboxamide]
4270	CC(=O)c1ccc(NC(=O)OCC2(C(=O)NCc3ccccc3Cl)CCOCC2)cc1 [(4-{[N-(4-acetylphenyl)carbamoyloxy]methyl}(2H-3,4,5,6-tetrahydropyran-4-yl))-N-[(2-chlorophenyl)methyl]carboxamide]
5540	CCc1ccc(NC(=O)OC2CCCN(C(=O)NCc3ccccc3C)C2)cc1 (stereo not shown) [{3-[N-(4-ethylphenyl)carbamoyloxy]piperidyl}-N-[(2-methylphenyl)methyl]carboxamide]
164	CCc1ccc(NC(=O)OCC2(C(=O)NCc3ccccc3Cl)CCN(C(=O)[C@H](N)CO)CC2)cc1 [(1-((2R)-2-amino-3-hydroxypropanoyl)-4-{[N-(4-ethylphenyl)carbamoyloxy]methyl}(4-piperidyl))-N-[(2-chlorophenyl)methyl]carboxamide]
15300	CCc1ccc(NC(=O)CCC2(C(=O)NCc3ccccc3C)CCN(C(=O)CN)CC2)cc1 [3-(1-(2-aminoacetyl)-4-{N-[(2-methylphenyl)methyl]carbamoyl}(4-piperidyl))-N-(4-ethylphenyl)propanamide]
2510	CCc1ccc(NC(=O)OCC(C)(C)C(=O)NCc2ccccc2Cl)cc1 [N-[(2-chlorophenyl)methyl]-3-[N-(4-ethylphenyl)carbamoyloxy]-2,2-dimethylpropanamide]
498	CC(C)c1ccc(NC(=O)OCC2(C(=O)NCc3ccccc3Cl)CCOCC2)cc1 [N-[(2-chlorophenyl)methyl][4-({N-[4-(methylethyl)phenyl]carbamoyloxy}methyl)(2H-3,4,5,6-tetrahydropyran-4-yl)]carboxamide]
4930	CCc1ccc(NC(=O)OCC2(C(=O)NCc3ccccc3Cl)CCN(C)CC2)cc1 [N-[(2-chlorophenyl)methyl](4-{[N-(4-ethylphenyl)carbamoyloxy]methyl}-1-methyl(4-piperidyl))carboxamide]
234	CCc1ccc(NC(=O)OC[C@@H]2C[C@@H](NC(=O)CN)CN2C(=O)NCc2ccccc2Cl)cc1 [N-((5S,3R)-1-{N-[(2-chlorophenyl)methyl]carbamoyl}-5-{[N-(4-ethylphenyl)carbamoyloxy]methyl}pyrrolidin-3-yl)-2-aminoacetamide]
5230	CCc1ccc(NC(=O)NCC2(C(=O)NCc3ccccc3Cl)CC2)cc1 [N-[({N-[(2-chlorophenyl)methyl]carbamoyl}cyclopropyl)methyl][(4-ethylphenyl)amino]carboxamide]
4830	CCc1ccc(NC(=O)OCC2(C(=O)NCc3ccccc3Cl)CCN(C(=O)C3CCN3C(=O)OC(C)(C)C)CC2)cc1 (stereo not shown) [tert-butyl 2-[(4-{N-[(2-chlorophenyl)methyl]carbamoyl}-4-{[N-(4-ethylphenyl)carbamoyloxy]methyl}piperidyl)carbonyl]azetidinecarboxylate]
283	CCc1ccc(NC(=O)OCC(C)(CCNC(=O)CN)C(=O)NCc2ccccc2Cl)cc1 (stereo not shown) [4-(2-aminoacetylamino)-N-[(2-chlorophenyl)methyl]-2-{[N-(4-ethylphenyl)carbamoyloxy]methyl}-2-methylbutanamide]
6810	CCc1ccc(NC(=O)OC[C@@H](C)N(C)C(=O)NCc2ccccc2Cl)cc1 [[(2R)-2-({[(2-chlorophenyl)methyl]amino}-N-methylcarbonylamino)propoxy]-N-(4-ethylphenyl)carboxamide]
2340	Cc1ccc(NC(=O)OCC2(C(=O)NCc3ccccc3Cl)CCOCC2)cc1C [(4-{[N-(3,4-dimethylphenyl)carbamoyloxy]methyl}(2H-3,4,5,6-tetrahydropyran-4-yl))-N-[(2-chlorophenyl)methyl]carboxamide]
198	CCc1ccc(NC(=O)OCC[C@H](C)N(C)C(=O)NCc2ccccc2Cl)cc1 [N-{(1S)-3-[N-(4-ethylphenyl)carbamoyloxy]-1-methylpropyl}{[(2-chlorophenyl)methyl]amino}-N-methylcarboxamide]
274	CCc1ccc(NC(=O)OCC2(C(=O)NCc3ccccc3Cl)CCN(S(=O)(=O)CCN)CC2)cc1 [(1-[(2-aminoethyl)sulfonyl]-4-{[N-(4-ethylphenyl)carbamoyloxy]methyl}(4-piperidyl))-N-[(2-chlorophenyl)methyl]carboxamide]
18500	CCc1ccc(NC(=O)OCC2(C(=O)NCc3ncc[nH]3)CCN(C(=O)CN)CC2)cc1 [({1-(2-aminoacetyl)-4-[N-(imidazol-2-ylmethyl)carbamoyl](4-piperidyl)}methoxy)-N-(4-ethylphenyl)carboxamide]
281	Cc1ccc(NC(=O)OCC2(C(=O)NCc3ccccc3Cl)CCN(C(=O)CN)CC2)c(Cl)c1 [(1-(2-aminoacetyl)-4-{[N-(2-chloro-4-methylphenyl)carbamoyloxy]methyl}(4-piperidyl))-N-[(2-chlorophenyl)methyl]carboxamide]
742	Cc1ccc(NC(=O)OCC2(C(=O)NCc3ccccc3Cl)CCN(C(=O)CN)CC2)cc1F [(1-(2-aminoacetyl)-4-{[N-(3-fluoro-4-methylphenyl)carbamoyloxy]methyl}(4-piperidyl))-N-[(2-chlorophenyl)methyl]carboxamide]
123	CCc1ccc(NC(=O)OCC2(C(=O)NCc3ccccc3Cl)CCN(C(=O)C(O)CO)CC2)cc1 (stereo not shown) [(1-(2,3-dihydroxypropanoyl)-4-{[N-(4-ethylphenyl)carbamoyloxy]methyl}(4-piperidyl))-N-[(2-chlorophenyl)methyl]carboxamide]
12100	Cc1ccc(NC(=O)OCC2(C(=O)NCc3ccccc3Cl)CCOCC2)cc1C(F)(F)F [N-[(2-chlorophenyl)methyl][4-({N-[4-methyl-3-(trifluoromethyl)phenyl]carbamoyloxy}methyl)(2H-3,4,5,6-tetrahydropyran-4-yl)]carboxamide]
1260	Cc1ccc(NC(=O)OCC2(C(=O)NCc3ccccc3Cl)CCOCC2)c(C)c1 [(4-{[N-(2,4-dimethylphenyl)carbamoyloxy]methyl}(2H-3,4,5,6-tetrahydropyran-4-yl))-N-[(2-chlorophenyl)methyl]carboxamide]

Compound	IC50 [nM]
CCc1ccc(NC(=O)OCC2(C(=O)NCc3ccccc3Cl)CCN(C(=O)CNC(=O)OC(C)(C)C)CC2)cc1 [(tert-butoxy)-N-[2-(4-{N-[(2-chlorophenyl)methyl]carbamoyl}-4-{[N-(4-ethylphenyl)carbamoyloxy]methyl}piperidyl)-2-oxoethyl]carboxamide]	919
CCc1ccc(NC(=O)OCC(C)(NC(=O)CNC(=O)OC(C)(C)C)C(=O)NCc2ccccc2Cl)cc1 (stereo not shown) [2-{2-[(tert-butoxy)carbonylamino]acetylamino}-N-[(2-chlorophenyl)methyl]-3-[N-(4-ethylphenyl)carbamoyloxy]-2-methylpropanamide]	19400
CCc1ccc(NC(=O)OCC2(C(=O)NCc3cccc(F)c3)CCN(C(=O)CNC(=O)OC(C)(C)C)CC2)cc1 [[(1-{2-[(tert-butoxy)carbonylamino]acetyl}-4-{N-[(3-fluorophenyl)methyl]carbamoyl}(4-piperidyl))methoxy]-N-(4-ethylphenyl)carboxamide]	8240
CCc1ccc(NC(=O)OCC2(C(=O)NCc3ccccc3Cl)CCN(C(=O)C(CO)NC(=O)OC(C)(C)C)CC2)cc1 (stereo not shown) [(tert-butoxy)-N-[2-(4-{N-[(2-chlorophenyl)methyl]carbamoyl}-4-{[N-(4-ethylphenyl)carbamoyloxy]methyl}piperidyl)-1-(hydroxymethyl)-2-oxoethyl]carboxamide]	661

From patent publication US8071625B2, “Certain chemical entities, compositions, and methods” (Cytokinetics, Inc., priority 2006, dated 2011)
